In one data set the test system is NCI-H929 cells. The experiment in a line: Antiproliferative activity against various tumor cells: NCI-H929. It is filed as cell-based. To be noted: Homo sapiens, read-out: Antiproliferative activity IC50 NCI-H929. The procedure: (§1) U937, NCI-H929, AML-2, and MOLM-13 cells in the logarithmic growth phase were diluted in media RPMI+10% FBS, RPMI+10% FBS, MEMα+20% FBS, RPMI+20% FBS, respectively, and plated at 4,000 cells/well in 96-well whole black plates (WHB) with 50 μL/well. After plating, the plates were incubated in an incubator at 5% CO2 and 37° C. for 24 h before the compounds were added. The compounds were prepared into a 10 mM stock solution in DMSO and diluted in a culture medium to the desired concentrations (a final DMSO concentration of 0.2%). […] The plates were incubated at 5% CO2 and 37° C. for 72 h. After the incubation was complete, the plates were equilibrated at room temperature for 30 min. CellTiter-Glo® Reagent (Promega G7573) was added at 100 μL/well. The plates were shaken for 12 min on a microplate shaker. The luminescence value was measured at room temperature by the GloMax navigator (Promega GM2010).

For another data set, the system named is U937 cells. The experiment in a line: Antiproliferative activity against various tumor cells: U937. It is filed as cell-based. To be noted: Homo sapiens, read-out: Antiproliferative activity IC50 U937. As to the method: as §1
In the next data set the test system is MOLM-13 cells. Nature of the data set: Antiproliferative activity against various tumor cells: MOLM-13. The data set is classed as cell-based. To be noted: Homo sapiens, read-out: Antiproliferative activity IC50 MOLM-13. The procedure: as §1
For the next data set, the system named is AML-2 cells. Nature of the data set: Antiproliferative activity against various tumor cells: AML-2. The data set is classed as cell-based. To be noted: 72 h, read-out: Antiproliferative activity IC50 AML-2. The procedure: as §1
A further data set deals with T1, IKZF1 (Homo sapiens, UniProt Q13422).
T1 construct: The whole cell lysate was prepared using a RIPA lysis buffer; endogenous in cells; host or cells: HL-60 cells
T1 sequence (Q13422 whole entry): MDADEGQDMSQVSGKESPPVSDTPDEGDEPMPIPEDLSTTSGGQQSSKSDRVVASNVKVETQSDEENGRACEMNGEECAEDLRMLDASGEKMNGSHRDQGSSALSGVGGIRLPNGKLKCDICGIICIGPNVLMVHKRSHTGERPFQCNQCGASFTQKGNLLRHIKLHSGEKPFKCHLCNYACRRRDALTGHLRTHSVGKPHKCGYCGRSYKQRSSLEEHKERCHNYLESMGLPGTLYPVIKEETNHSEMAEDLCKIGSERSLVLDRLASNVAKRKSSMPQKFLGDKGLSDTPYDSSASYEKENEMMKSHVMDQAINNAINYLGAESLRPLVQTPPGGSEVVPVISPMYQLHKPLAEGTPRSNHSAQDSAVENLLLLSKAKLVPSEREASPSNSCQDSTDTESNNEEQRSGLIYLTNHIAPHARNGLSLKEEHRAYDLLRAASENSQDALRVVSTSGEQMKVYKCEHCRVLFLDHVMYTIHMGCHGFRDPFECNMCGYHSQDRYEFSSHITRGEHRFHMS
Nature of the data set: Degradation of IKZF1 protein in HL-60 cells (Western blot). The data set is classed as cell-based. To be noted: 4 h. The procedure: (§2) […] of DMSO and the compounds were added, and the mixture was incubated in an incubator at 5% CO2 and 37° C. for 4 h. The cells were centrifuged, and the culture medium was discarded. PBS was added for washing and then discarded. The whole cell lysate was prepared using a RIPA lysis buffer containing a protease inhibitor cocktail and a phosphatase inhibitor, and incubated on ice for 30 min. The mixture was centrifuged, and the cell debris was discarded. The whole cell lysate supernatant was collected and transferred to a fresh EP tube. Samples were prepared using a loading buffer after a BCA protein assay. The samples were incubated in a metal bath at 100° C. for 10 min. The samples were electrophoretically separated from proteins on a 4-20% precast gel (SDS-PAGE gel), transferred to a PVDF membrane, blocked with 5% NFDM/TBST for 1 h at room temperature, co-incubated overnight at 4° C. with the primary antibody, and co-incubated for 2 h at room temperature with the secondary antibody on the next day. The signals were detected on the […]™ imaging system.
A general note: Immunoblotting shows a protein as a band on a membrane.

In a further data set the target is T2, IKZF3 (Homo sapiens, UniProt Q9UKT9).
T2 construct: The whole cell lysate was prepared using a RIPA lysis buffer; endogenous in cells; host or cells: HL-60 cells
T2 sequence (Q9UKT9 whole entry): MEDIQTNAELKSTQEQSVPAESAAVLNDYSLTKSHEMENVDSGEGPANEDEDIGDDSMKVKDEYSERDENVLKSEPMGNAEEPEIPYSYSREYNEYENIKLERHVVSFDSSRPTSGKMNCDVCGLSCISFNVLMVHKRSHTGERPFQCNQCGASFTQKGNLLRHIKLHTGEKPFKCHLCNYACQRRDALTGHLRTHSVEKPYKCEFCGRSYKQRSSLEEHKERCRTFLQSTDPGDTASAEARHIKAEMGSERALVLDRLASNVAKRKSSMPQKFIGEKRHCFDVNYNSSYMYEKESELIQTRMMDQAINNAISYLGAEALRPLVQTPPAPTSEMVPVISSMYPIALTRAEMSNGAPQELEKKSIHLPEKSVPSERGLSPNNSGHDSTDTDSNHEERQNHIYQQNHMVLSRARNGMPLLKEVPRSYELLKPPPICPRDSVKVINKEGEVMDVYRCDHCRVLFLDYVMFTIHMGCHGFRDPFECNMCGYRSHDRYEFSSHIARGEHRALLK
The experiment in a line: Degradation of IKZF3 protein in HL-60 cells (Western blot). To be noted: 4 h. The data set is classed as cell-based. The procedure: as §2

The target in another data set is T3, c-Myc (Homo sapiens, UniProt P01106).
T3 construct: The whole cell lysate was prepared using a RIPA lysis buffer; endogenous in cells; host or cells: HL-60 cells
T3 sequence (P01106 whole entry): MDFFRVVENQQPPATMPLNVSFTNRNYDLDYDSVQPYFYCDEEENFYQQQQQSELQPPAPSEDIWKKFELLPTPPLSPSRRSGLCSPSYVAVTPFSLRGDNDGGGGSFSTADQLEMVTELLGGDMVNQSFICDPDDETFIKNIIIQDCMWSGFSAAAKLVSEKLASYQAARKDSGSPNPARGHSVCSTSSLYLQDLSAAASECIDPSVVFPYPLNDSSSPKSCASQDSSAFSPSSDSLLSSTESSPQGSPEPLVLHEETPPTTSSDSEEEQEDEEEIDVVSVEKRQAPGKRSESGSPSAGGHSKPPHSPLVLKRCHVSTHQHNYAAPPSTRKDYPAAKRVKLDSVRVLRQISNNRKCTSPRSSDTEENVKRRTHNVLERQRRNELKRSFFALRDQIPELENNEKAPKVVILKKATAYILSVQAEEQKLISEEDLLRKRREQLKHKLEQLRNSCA
The experiment in a line: Degradation of c-MYC protein in HL-60 cells (Western blot). It is filed as cell-based. To be noted: 4 h. The procedure: as §2

In the next data set the target is T4, hERG potassium channel (Homo sapiens, UniProt Q12809).
T4 construct: expressed in transfected cells; host or cells: HEK293 cells
T4 sequence (Q12809 whole entry): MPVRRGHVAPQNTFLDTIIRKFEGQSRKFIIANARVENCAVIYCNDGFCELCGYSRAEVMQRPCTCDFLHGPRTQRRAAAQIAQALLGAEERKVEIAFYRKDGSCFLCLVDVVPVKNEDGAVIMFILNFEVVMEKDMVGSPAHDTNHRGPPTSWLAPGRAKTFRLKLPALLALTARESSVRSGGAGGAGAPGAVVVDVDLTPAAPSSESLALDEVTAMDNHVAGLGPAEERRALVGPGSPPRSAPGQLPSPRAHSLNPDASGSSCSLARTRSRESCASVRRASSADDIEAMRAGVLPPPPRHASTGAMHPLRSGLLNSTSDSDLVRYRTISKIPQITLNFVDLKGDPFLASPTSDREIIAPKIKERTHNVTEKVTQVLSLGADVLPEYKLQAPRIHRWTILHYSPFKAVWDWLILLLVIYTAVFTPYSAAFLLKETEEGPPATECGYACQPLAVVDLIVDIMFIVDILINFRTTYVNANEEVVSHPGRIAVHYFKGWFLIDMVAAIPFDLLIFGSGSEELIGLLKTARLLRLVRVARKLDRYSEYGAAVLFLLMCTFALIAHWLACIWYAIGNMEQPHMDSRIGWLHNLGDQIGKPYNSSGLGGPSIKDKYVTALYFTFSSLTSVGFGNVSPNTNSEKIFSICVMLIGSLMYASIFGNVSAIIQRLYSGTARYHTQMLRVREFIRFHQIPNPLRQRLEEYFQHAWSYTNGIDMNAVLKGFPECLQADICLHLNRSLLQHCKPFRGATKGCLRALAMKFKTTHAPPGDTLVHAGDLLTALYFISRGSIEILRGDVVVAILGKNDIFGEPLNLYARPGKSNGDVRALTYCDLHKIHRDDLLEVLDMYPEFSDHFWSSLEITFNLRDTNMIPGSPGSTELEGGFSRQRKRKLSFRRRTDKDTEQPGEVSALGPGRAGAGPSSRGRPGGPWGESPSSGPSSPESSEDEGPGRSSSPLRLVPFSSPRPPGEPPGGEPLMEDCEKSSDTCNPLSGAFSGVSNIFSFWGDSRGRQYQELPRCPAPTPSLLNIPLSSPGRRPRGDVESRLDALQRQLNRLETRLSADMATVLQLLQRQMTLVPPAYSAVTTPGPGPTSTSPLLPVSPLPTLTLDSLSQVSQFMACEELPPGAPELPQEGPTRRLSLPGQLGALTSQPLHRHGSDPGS
The experiment in a line: hERG inhibition assay (automated patch clamp, HEK293). The data set is classed as cell-based. As to conditions: 3 μM, HEK293 cells, QPatch. From the text:
The rapidly activating potassium channel encoded by human ether-a-go-go-related gene (hERG) is an important ion channel involved in the formation of cardiac action potential phase 3 repolarization. Blocking of the hERG channel by drugs can lead to the prolongation of cardiac repolarization and thus a prolonged QT interval in the electrocardiogram, known as long QT syndrome. Drug-induced delayed ventricular repolarization may in some cases trigger fatal arrhythmia-torsade de pointes-type ventricular tachycardia.
This assay was used to measure the effect of compounds on the hERG potassium channel clones expressed in human embryonic kidney (HEK293) cells. The assay procedures are as follows: the cells were transferred into a HEPES-buffered saline in glass-lined 96-well plates and exposed to an appropriate amount of test compound or control solution at various concentrations for 3 min. The test compounds were diluted in 0.3% DMSO.

The test system of the next data set is MV-4-11-Luc xenograft. Nature of the data set: Efficacy in acute myeloid leukemia MV-4-11-luc xenograft mouse model. The data set is classed as in vivo. To be noted: 10 mg/kg orally twice daily, NSG mice. From the text:
In an in vivo efficacy study, female immunocompromised NSG mice aged 6 to 8 weeks were used and the experimental procedures started after the animals were acclimatized in the experimental environment for 7 days. The animals were housed in SPF animal rooms in individually ventilated cages (IVCs) each containing 6 mice. Human acute myeloid leukemia MV-4-11 cells expressing luciferase (MV-4-11-luc) were grafted into mice by tail vein injection (5×10^6 cells/mouse). Seven days after the cell grafting, the mice were subjected to imaging on the IVIS Lumina III small animal imaging system for grouping and administration, and tumor-bearing mice were randomized to the vehicle control group or treatment groups (6 mice/group). The compound (10 mg/kg, twice daily) was administered to the animals in each treatment group by oral gavage. The body weight was measured daily, while mean luminescence was measured after the start of treatment with the compounds or vehicle.
Indicators: The indicators were to investigate whether the tumor growth was inhibited or delayed or the tumor was cured. The tumor size was measured twice weekly using the IVIS Lumina III small animal imaging system. The tumor signals were determined by exposure photons per second. The anti-tumor efficacy of the compounds was evaluated by the tumor proliferation rate T/C (%). T/C %=TRTV/CRTV×100% (TRTV: the RTV of the treatment group; CRTV: the RTV of negative control group; RTV=Vt/V0, where V0 is the tumor signal measured at the time of grouping and administration (i.e., day 0), and Vt is the tumor signal at every measurement). According to the guidelines of the Center for Drug Evaluation, NMPA, a T/C (%) of >40% denotes the absence of efficacy, while a T/C of <40% with P<0.05 denotes the presence of efficacy.

Like-named read-outs stand apart in the source and are kept apart here.

Regarding `O=C1CCC(N2Cc3c(ccc(CNC(=O)c4ccc(Cl)cc4)c3F)C2=O)C(=O)N1` (stereo not drawn) [FDAB-48], the IC50 in the data set with NCI-H929 cells (NCI-H929, 72 h) lay within 1 to 10 nM; with U937 cells (U-937, 72 h), 10 to 100 nM; in the data set on MOLM-13 cells (MOLM-13, 72 h), 10 to 100 nM; in the data set with AML-2 cells, 100 to 1000 nM. Moreover, the IKZF1 degradation entry on IKZF1 (10 nM) is reported as “B (B denotes a percentage of degradation less than 800% but not less than 500%)”; at IKZF1 (100 nM), “A (A denotes a percentage of GSPT1 protein degradation not less than 8000)”; at IKZF1 (1000 nM) it was “A (A denotes a percentage of GSPT1 protein degradation not less than 8000)”. The IKZF3 degradation result on IKZF3 (10 nM) is given as “C (C denotes a percentage of degradation less than 500% but not less than 250%)”; on IKZF3 (100 nM) it was “B (B denotes a percentage of degradation less than 800% but not less than 500%)”; on IKZF3 (1000 nM), “A (A denotes a percentage of GSPT1 protein degradation not less than 8000)”. Moreover, the values for the c-Myc degradation entry on c-Myc (10 nM), on c-Myc (100 nM) and at c-Myc (1000 nM) were “D (D denotes a percentage of degradation less than 25%)”, “D (D denotes a percentage of degradation less than 25%)” and “C (C denotes a percentage of degradation less than 500% but not less than 250%)”, respectively. The hERG inhibition rate at hERG potassium channel came out at 25%. For the same compound, the “T/C (%) Day 3” value in the data set with MV-4-11-Luc xenograft is on record as 0.95%. The “T/C (%) Day 7” value in the data set on MV-4-11-Luc xenograft amounted to 0.22%. In addition, the “T/C (%) Day 10” value in the data set on MV-4-11-Luc xenograft was found to be 0.10%. Moreover, in the data set on MV-4-11-Luc xenograft, the “T/C (%) Day 14” value worked out at 0.05%.

As to `Cc1ccc(C(=O)NCc2ccc3c(c2F)CN(C2CCC(=O)NC2=O)C3=O)c(F)c1` (stereo not drawn) [FDAB-121], the IC50 in the data set on NCI-H929 cells (NCI-H929 cells, 72 h) is 1 to 10 nM; in the data set with U937 cells (U-937, U937 cells, 72 h) it was 10 to 100 nM; with MOLM-13 cells (MOLM-13 cells, 72 h), 10 to 100 nM; with AML-2 cells (AML-2 cells), 10 to 100 nM. Besides, the results for the IKZF1 degradation result at IKZF1 (10 nM), at IKZF1 (100 nM) and on IKZF1 (1000 nM) were “B (B denotes a percentage of degradation less than 800% but not less than 500%)”, “A (A denotes a percentage of GSPT1 protein degradation not less than 8000)” and “A (A denotes a percentage of GSPT1 protein degradation not less than 8000)”, respectively. Further, the results for the IKZF3 degradation result on IKZF3 (10 nM), at IKZF3 (100 nM) and at IKZF3 (1000 nM) were “D (D denotes a percentage of degradation less than 25%)”, “B (B denotes a percentage of degradation less than 800% but not less than 500%)” and “B (B denotes a percentage of degradation less than 800% but not less than 500%)”, respectively. Moreover, the c-Myc degradation entry at c-Myc (10 nM), on c-Myc (100 nM) and on c-Myc (1000 nM) was “D (D denotes a percentage of degradation less than 25%)” each time. The hERG inhibition rate on hERG potassium channel turned out to be 9%. Further, the “T/C (%) Day 3” value with MV-4-11-Luc xenograft is on record as 0.32%. In the data set on MV-4-11-Luc xenograft, the “T/C (%) Day 7” value came out at 0.06%. Besides, the “T/C (%) Day 10” value in the data set on MV-4-11-Luc xenograft was 0.02%. For the same compound, in the data set on MV-4-11-Luc xenograft, the “T/C (%) Day 14” value is on record as 0.00%.

The IC50 is the point on the concentration scale where inhibition reaches its midpoint.

Values taken from patent US20250282746A1, “HALOGEN-SUBSTITUTED ISOINDOLINE COMPOUND AND USE THEREOF” (CHENGDU FENDI PHARMACEUTICAL CO., LTD., priority 2022, published 2025).
